Common to all, as to design: dose 1 mg/kg, route intravenous
The nature of series [1]: Area under the curve was measured in monkey after an iv dose of 1 mg/kg. In kind it is ADME, organism-based. Conditions: cercopithecidae, in vivo.
A short description of series [2]: Area under the curve was measured in rat after an iv dose of 1 mg/kg. In kind it is ADME, organism-based. Conditions: in vivo.
Series [3] is described as follows: Volume of distribution was measured in monkey after an iv dose of 1 mg/kg. It counts as ADME, organism-based. The conditions noted are these: cercopithecidae, in vivo, read-out: Vv.
A short description of series [4]: Half-life was measured in rat after an iv dose of 1 mg/kg. In kind it is ADME, organism-based. The conditions noted are these: in vivo.
Series [5] is described as follows: Area under the curve was measured in dog after an iv dose of 1 mg/kg. In kind it is ADME, organism-based, Canis lupus familiaris. Conditions: in vivo.
A short description of series [6]: Area under the curve was measured in mouse after an iv dose of 1 mg/kg. It counts as ADME, organism-based. Conditions: in vivo.
Series [7] in a line: Plasma clearance for the compound was measured in rat after an iv dose of 1 mg/kg. Conditions: read-out: Clp (converted). It counts as ADME, organism-based.
Series [8] in a line: Volume of distribution was measured in mouse after an iv dose of 1 mg/kg. In kind it is ADME, organism-based. The conditions noted are these: in vivo, read-out: Vv.
Series [9] in a line: Terminal phase volume of distribution was measured in dog after an iv dose of 1 mg/kg. In kind it is ADME, organism-based, Canis lupus familiaris. The conditions noted are these: in vivo, read-out: Va beta.
Series [10] is described as follows: Plasma clearance for the compound was measured in dog after an iv dose of 1 mg/kg. In kind it is ADME, organism-based, Canis lupus familiaris. The conditions noted are these: read-out: Clp (converted).
Series [11] is described as follows: Terminal phase volume of distribution was measured in rat after an iv dose of 1 mg/kg. In kind it is ADME, organism-based. Conditions: in vivo, read-out: Va beta.
A short description of series [12]: Volume of distribution was measured in rat after an iv dose of 1 mg/kg. In kind it is ADME, organism-based. The conditions noted are these: in vivo, read-out: Vv.
Series [13] in a line: Plasma clearance for the compound was measured in mouse after an iv dose of 1 mg/kg. In kind it is ADME, organism-based. The conditions noted are these: read-out: Clp (converted).
Series [14] can be described thus: Half-life was measured in mouse after an iv dose of 1 mg/kg. It counts as ADME, organism-based. The conditions noted are these: in vivo.
A short description of series [15]: Half-life was measured in dog after an iv dose of 1 mg/kg. In kind it is ADME, organism-based, Canis lupus familiaris. Conditions: in vivo.
Series [16] is described as follows: Half-life was measured in monkey after an iv dose of 1 mg/kg. In kind it is ADME, organism-based. Conditions: cercopithecidae, in vivo.
A short description of series [17]: Volume of distribution was measured in dog after an iv dose of 1 mg/kg. In kind it is ADME, organism-based, Canis lupus familiaris. Conditions: in vivo, read-out: Vv.
A short description of series [18]: Terminal phase volume of distribution was measured in mouse after an iv dose of 1 mg/kg. Conditions: in vivo, read-out: Va beta. It counts as ADME, organism-based.
Series [19] in a line: Plasma clearance for the compound was measured in monkey after an iv dose of 1 mg/kg. It counts as ADME, organism-based. The conditions noted are these: cercopithecidae, read-out: Clp (converted).
The nature of series [20]: Terminal phase volume of distribution was measured in monkey after an iv dose of 1 mg/kg. The conditions noted are these: cercopithecidae, in vivo, read-out: Va beta. It counts as ADME, organism-based.

The structures appear in SMILES notation. Starred links: 1 amine or outer side, 2 acyl side, 3 side chain; linkers in the order of their positions; H or OH if unused. Positions of bridges follow the written chain, without caps; N, C: chain ends. Non-standard residues stand in square brackets, D forms with d. Residues, ends and D or L forms follow the SMILES beside them. *: point of attachment. pTerphenylCO(4''-OnC5H11) = CCCCCOc1ccc(-c2ccc(-c3ccc(C(=O)*)cc3)cc2)cc1; X1 = NCC(=O)Nc1cc(CC[C@H](N[*:1])C(=O)[*:2])ccc1O; X2 = NC(N)=N[C@H]1CC(C(=O)[*:2])N([*:1])C1; Hyp = O=C(O)[C@@H]1C[C@@H](O)CN1; Orn = NCCC[C@H](N)C(=O)O

For `CCCCCOc1ccc(-c2ccc(-c3ccc(C(=O)N[C@H]4CCCNC(=O)C5C[C@H](N=C(N)N)CN5C(=O)[C@H]([C@@H](C)O)NC(=O)[C@H](CCc5ccc(O)c(NC(=O)CN)c5)NC(=O)[C@@H]5C[C@@H](O)CN5C(=O)[C@H]([C@@H](C)O)NC4=O)cc3)cc2)cc1` (stereo not given in full) ({pTerphenylCO(4''-OnC5H11)}-[Orn]T[Hyp][X1]T[X2]; lactam 1-C), the AUC worked out at 6550 ng·h/mL in [1], 11700 ng·h/mL in [2], 36400 ng·h/mL in series [5] and 16800 ng·h/mL in series [6]. The Vd in series [3] amounted to 0.2 L/kg; in series [8] it was 0.4 L/kg; in [9] it was 1.3 L/kg; in series [11] it was 2.2 L/kg; in series [12], 0.6 L/kg; in series [17], 0.6 L/kg. For the same molecule, the Vd in series [18] stood at 1 L/kg; in [20], 0.9 L/kg. In addition, the half-life in series [4] was 7.4 h; in series [14], 11.5 h; in series [15], 30.4 h; in series [16] it was 3.3 h. Besides, the clearance in series [7] is 2.33 mL/min/kg; in series [10] it was 0.5 mL/min/kg; in series [13], 1 mL/min/kg; in series [19] it was 2.83 mL/min/kg.

Usually AUC stands for the area under the concentration-time curve, a measure of exposure. The half-life is how long it takes for the measured level to halve.

These data come from ChEMBL document CHEMBL1136559, “Discovery, SAR, synthesis, pharmacokinetic and biochemical characterization of A-192411: a novel fungicidal lipopeptide-(I)” (Bioorg Med Chem Lett, 2003).
